The results in this text go back to ChEMBL document CHEMBL1201862, “PubChem BioAssay data set” (2004).

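Assay format: 96-well plates, 48-hour exposure. GI50: concentration for 50% inhibition of growth.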 The source made the active and inactive calls. No stated cut-off is given here; in the data, active = GI50 up to about 1.1 µM and inactive = higher.

Common to all, as to assay: growth of human tumour cells (NCI), 48 h
Assay [1] deals with DU-145.
For assay [2], the system named is SNB-78.
The subject of assay [3] is KM-20L2.
Assay [4] has as its system XF498.
Assay [5] deals with LXFL 529.
Assay [6] has as its system RXF 631.
Assay [7] has as its system HOP-18.
Assay [8] deals with M19-MEL.
Assay [9] relates to DLD-1.

With `COc1ccc2nc(-c3ccc(O)cc3)cc(O)c2c1`, the GI50 in assay [1] was 15.7 µM (inactive); in assay [2], 0.841 µM (active); in assay [3], 1.7 µM (inactive); in [4] it was 0.556 µM (active); in [5], 1.1 µM (active); in [6], 3.63 µM (inactive). The GI50 in assay [7] is 4.78 µM (inactive); in assay [8], 0.465 µM (active); in assay [9], 1.35 µM (inactive).

`CS/C(=N\c1ccc([N+](=O)[O-])cc1C#N)NC(=O)c1ccccc1`: the GI50 in assay [2] was > 100 µM (inactive); in [3] it was > 100 µM (inactive); in assay [4], > 100 µM (inactive); in [5] it was > 100 µM (inactive); in [6] it was > 100 µM (inactive); in assay [7], 75.7 µM (inactive). Also, the GI50 in assay [8] and in assay [9] was > 100 µM (inactive) throughout.

Consider `C/C(CCn1[nH]c(=O)ccc1=O)=N\OCCCc1ccccc1`, for which the GI50 in [2], in [3], in assay [4], in assay [5], in assay [7] and in [8] was > 100 µM (inactive) in each case. The GI50 in [9] was > 100 µM (inactive).

On to `O=C(Nc1ccc(Cl)cc1Cl)C1C(=O)N(c2ccc(Cl)cc2Cl)C(=O)/C1=N\Nc1ccc([N+](=O)[O-])cc1[N+](=O)[O-]` (stereo unspecified), for which the GI50 in assay [2] was > 100 µM (inactive); in [3], 26.4 µM (inactive); in assay [5] it was 13.9 µM (inactive); in assay [6], 62.2 µM (inactive); in assay [7], 17.9 µM (inactive); in [8], 59.3 µM (inactive). Besides, the GI50 in assay [9] was 46.8 µM (inactive).

Turning to `O=C(CCN1CCN(c2cccc(Cl)c2)CC1)N1CCc2c([nH]c3ccccc23)C1c1cccnc1` (stereo unspecified), the GI50 in assay [2] was 3.72 µM (inactive); in assay [3], 5.52 µM (inactive); in assay [4], 3.27 µM (inactive); in assay [5] it was 4.19 µM (inactive); in [6] it was 2.59 µM (inactive); in [7], 12.8 µM (inactive). Further, the GI50 in assay [8] is 13.3 µM (inactive); in [9], 5.32 µM (inactive).

On to `CCOC(=O)C1=C(C)C2C3C(=O)OC(=O)C3C1(C)C1C(=O)OC(=O)C21` (stereo unspecified), for which the GI50 in assay [2], in assay [3], in [5], in assay [6], in assay [8] and in assay [9] was > 100 µM (inactive) each time.

In the case of `CC(=O)N/C(=C\c1ccc(/C=C(\NC(C)=O)c2nc3cc(Cl)ccc3[nH]2)cc1)c1nc2ccccc2[nH]1`, the GI50 in assay [2], in assay [3], in assay [4], in assay [5], in [6] and in [8] was > 100 µM (inactive) throughout. In assay [9], the GI50 was > 100 µM (inactive).

On to `C1=C(c2ccccc2)C(OC2Oc3ccccc3C=C2c2ccccc2)Oc2ccccc21` (stereo unspecified), for which the GI50 in assay [2], in [3], in assay [4], in assay [5], in [6] and in assay [7] was > 100 µM (inactive) in each case. In addition, the GI50 in assay [8] and in assay [9] was > 100 µM (inactive) throughout.

Consider `Cc1ccc(NC(=O)CCc2nnc(S)[nH]2)cc1`, for which the GI50 is > 100 µM (inactive) in [2]; 54.8 µM (inactive) in [3]; > 100 µM (inactive) in [4]; > 100 µM (inactive) in assay [5]; > 100 µM (inactive) in [6]; > 100 µM (inactive) in assay [7]. Besides, the GI50 in [8] and in assay [9] was > 100 µM (inactive) throughout.

`Nc1cn(C2OC(CC(c3ccccc3)(c3ccccc3)c3ccccc3)C(O)C2O)c(=O)[nH]c1=O` (stereo unspecified): the GI50 in assay [2] was 67.9 µM (inactive); in assay [3], 22 µM (inactive); in assay [4], 28.6 µM (inactive); in assay [5], 31.8 µM (inactive); in assay [6], 43.9 µM (inactive); in assay [7] it was 31.9 µM (inactive). Also, the GI50 was 18.4 µM (inactive) in [8] and 24.5 µM (inactive) in [9].

As for `CC(=O)C1=C(O)C(N)C2Cc3c(c(O)c4c(O)c(C)ccc4c3C)C(=O)C2(O)C1=O` (stereo unspecified), the GI50 in assay [2] was 2.17 µM (inactive); in [3], 2.85 µM (inactive); in [4], 1.84 µM (inactive); in [5], 2.66 µM (inactive); in [6] it was 2.2 µM (inactive); in [7], 2.93 µM (inactive). The GI50 in assay [8] was 2.48 µM (inactive); in [9], 2 µM (inactive).

`Cc1cc(O)c(C=O)c(C)c1CCC1(C)C=Cc2cc(O)ccc2O1` (stereo unspecified): the GI50 in assay [2] is 21.2 µM (inactive); in [3], 25.1 µM (inactive); in assay [4] it was 19.1 µM (inactive); in [5], 15.7 µM (inactive); in [7] it was 18.3 µM (inactive); in assay [8], 27.7 µM (inactive). Further, the GI50 in [9] was 19.6 µM (inactive).

For `c1ccc2c(c1)[nH]c1c2nc2ncccn21`, the GI50 in assay [2], in assay [3], in assay [4], in assay [5], in assay [6] and in [8] was > 100 µM (inactive) throughout. In addition, in assay [9], the GI50 was > 100 µM (inactive).

Take `Fc1ccc(/N=C2C=C/C(=N\c3ccc(F)cc3)c3ccccc3\2)cc1`: the GI50 in assay [2], in assay [3], in assay [4], in assay [5], in assay [7] and in [8] was > 100 µM (inactive) throughout. Also, in assay [9], the GI50 is > 100 µM (inactive).

Consider `O=C(CC1(O)C(=O)Nc2ccc([N+](=O)[O-])cc21)c1ccc2ccccc2c1` (stereo unspecified), for which the GI50 in assay [2], in assay [3], in assay [5], in [6], in assay [8] and in assay [9] was > 100 µM (inactive) each time.

Turning to `O=S(=O)(O)c1ccc([Se][Se]c2ccc(S(=O)(=O)O)cc2)cc1`, the GI50 in assay [2] was > 100 µM (inactive); in assay [3], > 100 µM (inactive); in assay [4] it was > 100 µM (inactive); in [5], 51.2 µM (inactive); in [7], > 100 µM (inactive); in assay [8], > 100 µM (inactive). Further, the GI50 in assay [9] is > 100 µM (inactive).

On to `O=[N+]([O-])c1nccn1CC(O)CN1CC1` (stereo unspecified), for which the GI50 was 78 µM (inactive) in assay [2]; 61.2 µM (inactive) in assay [3]; > 100 µM (inactive) in [4]; 79.4 µM (inactive) in assay [5]; 40 µM (inactive) in [6]; > 100 µM (inactive) in [7]. In addition, the GI50 in [8] was 63.4 µM (inactive); in assay [9], 69.3 µM (inactive).
